Test results as given in patent US20180043059A1, “3D Ti-6Al-4V Structures with Hydrogel Matrix” (priority 2016, published 2018).
“Also recorded” adds a separate entry of the source. Read-outs that look alike come from different tables or passages of the source.

Experiments:
HUVECs [1] = assay: Combinatorial dose of DFM and D(+) glucose, MTS viability, HUVECs; type: cell-based, Human; settings: 5 mM glucose, 24 hours
Description: (§1) Cells that undergo hypoxia mimetic stress mediated by Hif-1α have been reported to increase their metabolic demands. To test how metabolic demands change in cells exposed to DFM, both HUVECs and MC3T3-E1 cells were exposed to 3.2 μM DFM, 5 mM D(+) glucose and a combination of 3.2 μM DFM+5 mM D(+) glucose for 24 hours. A negative control consisted of both cell types without treatment. The viability of cells was determined by MTS viability assay. The purpose of this approach is to determine whether D(+) glucose can be used as an additive in the hydrogel matrix to improve wound healing and help drive vascularization and osteogenesis process.

MC3T3-E1 cells [2] = assay: Combinatorial dose of DFM and D(+) glucose, MTS viability, MC3T3-E1; type: cell-based, mouse; settings: 5 mM glucose, 24 hours
Description: as §1

HUVECs [3] = settings: cited from earlier work
MC3T3-E1 cells [4] = tested on: MC3T3-E1 cells
MC3T3-E1 cells [5] = assay: Fluorescent microscopy of pre-osteoblasts grown in Ti-6Al-4V foam under DFM; type: cell-based, mouse; settings: 3.2 μM DFM (low concentration), 21 days
Description: Pre-osteoblasts seeded on foam structures were cultured for 7 days to test for similar cell behavior as reported by Nune et al. Cells were seeded at 200,000 cells/well in a 12 well plate, 1 mL total media volume and then stained with Hoechst 33342 cell nuclei dye. A second experiment was performed once the appropriate concentration of DFM was selected. Pre-osteoblasts are seeded at the previously described concentration in the same conditions but exposed to 3.2 μM DFM. Proliferation is observed after 21 days exposure. A second stain is performed with Vybrant® CFDA SE Cell Tracer Kit to visually determine the viability of cells without disturbing the layer of cells grown in the foams. Because the scaffold is solid metal, light cannot be transmitted through it if fully dense. However, due to the foam nature of the scaffold, light may be transmitted though the medium and a visible image can be obtained if the metal section is thin enough. Despite the fact that a thin section makes fluorescent microscopy feasible, since the scaffold is 3D, focus is lost in the z axis and there is a lack of clarity for morphological details. Improvements on microscopy can be done by using Confocal Microscopy instead of Fluorescent Microscopy in order to view in more detail cellular morphology and microcapillary formation. […]

MC3T3-E1 cells [6] = assay: Alizarin Red S (ARS) mineralization assay; type: cell-based, mouse
Text: Because it is expected that pre-osteoblasts differentiate into osteoblasts under a hypoxic condition, cells should mineralize calcium in the ECM. The study of mineralization of ECM can be viewed as a measure or potential for bone formation. In this regard, Alizarin Red Assay (ARS) (Sigma-Aldrich) is used qualitatively and quantitatively to indicate the presence of calcium in the matrix. […] The negative control for this experiment is cells grown in 3D printed foams in complete media with no added glutamate. After incubation, the samples are washed carefully with PBS without disturbing the cell layer and fixed with 4% paraformaldehyde for 30 minutes. The 3D foam structures were then stained with alizarin red (pH˜4.1) in the dark and at room temperature for 30 minutes. Samples are qualitatively studied via light microscope after rinsing with PBS. The calcium nodules should appear red. To conduct quantitative analysis, 10% cetyl pyridinium chloride will be added to remove the alizarin red stain. The absorbance of the solution is measured at 570 nm OD with a spectrophotometric microplate reader.

HUVECs [7] = assay: Induction of angiogenesis (capillary formation) in Matrigel and in foams with gel; type: cell-based, Human
Description: It has been previously reported that MC3T3-E1 pre-osteoblast cells undergo differentiation and proliferation when grown in porous foams in glutamine containing media. It has been extensively reported that endothelial cells are able to form capillaries in gels when exposed to DFM [28]. In this experiment, a live angiogenesis monitoring experiment is performed in order to analyze capillarity maturation and cell survival. This analysis is achieved by staining HUVECs with PHK26 Red Fluorescent Dye (Sigma) and MC3T3-E1 cells with PKH67 Green fluorescent dye (Sigma). Both dyes stain cell membranes in an unspecific way, while maintaining cellular viability for an extended period of time. MC3T3-E1 cells are grown in foams as described above, but under hypoxic conditions (3.2 μM DFM). The Ti-6Al-4V foams are pre-incubated with pre-osteoblasts for a total of 7 days, with a negative hypoxia control being cells without any DFM. The cells grown on the foams and gel are monitored throughout the duration of this experiment. The foams are removed from the wells and placed in a 12 well plate and Matrigel® (Corning Life Sciences) will be added until the foam is completely covered. In order to observe microcapillarity formation upon exposure of HUVECs to DFM, the manufacturer specifications are followed. Briefly, Matrigel® is thawed according to specifications (4° C. overnight) and added to a 24 well cell culture plate and allowed to gelate also according to specifications (30-60 minutes at 37° C.). […] The cell suspension is incubated at 37° C., 5% CO2 for 16 to 18 hours on the Matrigel coated plate for 16-18 hours. The formation of microcapillaries is measured by confocal microscopy.

HUVECs [8] = assay: Total protein content (Bradford); type: cell-based, Human; settings: endothelial cells exposed to DFM
Description: Cells are grown for 6 h, 24 h and 48 h in the presence of DFM at the previously specified 1:5 dilutions. After the desired time periods they are washed with cold 1×PBS and lysed with Radioimmunoprecipitation (RIPA) protein lysis buffer (0.2% Triton X-100+protease inhibitor cocktail) for 30 min in an ice bath. The total protein content in the cells is estimated using the Bradford spectrophotometric protein assay. Briefly, 10 μL of the cell lysate will be mixed with 100 μL of Bradford Reagent (Sigma) and re-suspended to homogenize the solution on a 96 well plate. The absorbance will be measured at 595 nm. A standard plot of absorbance as a function of bovine serum albumin (BSA) concentration will be obtained to determine the concentration value of the experimental and control samples.

[9] = tested on: MC3T3-E1 pre-osteoblast cells
Hif-1α = assay: Western blot analysis of Hif-1α in HUVECs exposed to DFM; type: cell-based, Human
Description: To further quantify the expression of specific proteins, a western blot analysis is performed for Hif-1α and VEGF165. The western blot analysis was made using the cell lysate previously described. A Sodium Dodecyl Sulfate-Polyacrylamide Gel Electrophoresis (SDS-PAGE) was made (7.5% acrylamide for Hif-1α (93 kDa) and 12% acrylamide for VEGF165 (38 kDa)). The separated proteins are then transferred to a PVDF membrane. The Hif-1α antibody at a 1:1,000 dilution in 1% BSA in 1×TBST buffer was incubated for one hour at room temperature, followed by three 10 min washes with TBST. A secondary anti-rabbit IgG HRP conjugated antibody was incubated for 30 minutes at room temperature, followed also by subsequent washes with TB ST.

## O=C[C@H](O)[C@@H](O)[C@H](O)[C@H](O)CO [D(+) glucose]
HUVECs [1]; compared with MC3T3-E1, listed as D(+) Glucose
  viability response to additional D(+) glucose: Augments Viability Faster
HUVECs [1]; compared with MC3T3-E1, listed as glucose
  viability response to additional D(+) glucose: more positive response
MC3T3-E1 cells [2]
  viability response to additional D(+) glucose: not

## CC(=O)N(O)CCCCCNC(=O)CCC(=O)N(O)CCCCCNC(=O)CCC(=O)N(O)CCCCCN.CS(=O)(=O)O [DFM, Deferoxamine Mesylate]
HUVECs [3]; previous reports
  DFM concentration that can stimulate a survival response: ~10 µM
HUVECs [3]; previously reported
  DFM concentration at which HUVECs undergo angiogenesis: approximately 10 μM
MC3T3-E1 cells [4]; 24 hour exposure, remaining dilutions, compared to unexposed control
  cellular proliferation (cell count): constant cell population numbers, with a slight decrease in numbers
MC3T3-E1 cells [4]; lowest concentrations (3.2 μM and 640 nM)
  cellular proliferation (cell count): observable increase in proliferation
MC3T3-E1 cells [5]
  proliferation of pre-osteoblasts in the foam (Hoechst 33342 staining): proliferating
MC3T3-E1 cells [6]; Ti-6Al-4V foams, 3.2 μM DFM
  cellular production of hydroxyapatite, cells grown in foams: enhanced; also recorded: DFM enhances the cellular production of
MC3T3-E1 cells [6]; foams, 3.2 μM DFM, 14 days
  synthesis levels of hydroxyapatite versus control: increase on par in both settings
MC3T3-E1 cells [6]; foams, 3.2 μM DFM, 21 days, FIG. 6
  amount of cellular hydroxyapatite versus control: dramatically increases
MC3T3-E1 cells [6]; foams, 3.2 μM DFM, initially (7 days)
  amount of hydroxyapatite versus control: comparatively similar amounts of hydroxyapatite to control cells
MC3T3-E1 cells [6]; plates
  production of mineralized calcium / hydroxyapatite, cells grown in plates: increases the production of mineralized calcium; also recorded: DFM enhances the cellular production of
MC3T3-E1 cells [6]; plates, 640 nM DFM, 21 days, FIG. 5
  expression of mineralized calcium (ARS): highest expression of mineralized calcium
MC3T3-E1 cells [6]; plates, 640 nM DFM, every instance (7, 14, 21 days)
  expression of hydroxyapatite compared to control cells: always in greater amount
HUVECs [7]; HUVECs exposed to 2 mM DFM in Matrigel
  maintenance of capillary structure: maintain their structure for an extended period of time
HUVECs [7]; HUVECs exposed to 2 mM DFM, 18 hour period, not apparent in control without DFM
  capillary formation in Matrigel: readily formed capillaries; also recorded: HUVECs readily undergo migration to form
HUVECs [7]; Ti-6Al-4V foam + Matrigel with pre-incubated MC3T3-E1, HUVECs treated with 2 mM DFM, FIG. 7
  vascular structure formation in foams with gel: HUVECs readily undergo migration to form
HUVECs [8]
  levels of total protein synthesized: No obvious changes
[9]; 24 hours exposure
  cellular metabolism (MTS) across drug concentrations: almost no variation in cellular metabolism
[9]; exposure equal or longer than 72 hours
  MTS metabolism: greatly increases
[9]; lower concentrations
  viability at lower concentrations (summary): E1 cells exposed to DFM. Viability increases
[9]; mouse
  cellular viability (summary): Cellular viability does not decrease in MC3T3-
Hif-1α; 48 hours exposure
  total intracellular Hif-1α bands: still producing definitive bands
Hif-1α; HUVECs
  Hif-1α levels with increasing DFM concentration (summary): Hif-1α levels increased with increasing DFM
Hif-1α; high doses (2 mM) vs normoxia
  Hif-1α expression: notably increase

## CoCl2
[9]
  MTS metabolism: greatly increases
  cellular metabolism (MTS) across drug concentrations: almost no variation in cellular metabolism
  viability at lower concentrations (summary): E1 cells exposed to DFM. Viability increases
